For data set [1], the system named is SMN2 minigene (full length SMN2 minigene mRNA containing SMN2 exon 7). In words: SMN2 minigene mRNA splicing RT-qPCR assay in cultured cells. The settings on record: Homo sapiens, HEK293-H, read-out: EC1.5x for production of full length SMN2 mRNA. The class given is cell-based, human. An outline of the steps: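 Read-out: full-length (exon 7-included) SMN2 minigene mRNA by multiplex RT-qPCR with GAPDH, efficiency-corrected (1+E)^−Ct, GAPDH-normalized and divided by vehicle. Stably transfected HEK293H cells, 24 h compound exposure, duplicates per concentration. Value is EC1.5x, reported as star ranges.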
Background: In qPCR the cycle at which signal appears reflects the starting amount.

Another data set relates to Smn protein. In words: Smn protein assay in cultured cells (SMN HTRF). The class given is cell-based, human. The settings on record: 48 hours; for maximum fold (Fold) increase of Smn protein: SMA patient fibroblast cells, 7-point concentration data, fold increase relative to vehicle control (SMN HTRF); for EC1.5x (concentration giving 1.5-fold Smn protein increase): SMA Type 1 patient fibroblast cells (GM03813), 7-point concentration curve, SMN HTRF, concentration producing 1.5 times Smn protein vs DMSO vehicle control, read-out: EC1.5x for Smn protein expression. An outline of the steps:
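Lysates in RIPA with protease inhibitors are incubated overnight at room temperature with HTRF anti-SMN antibodies. EC1.5x is derived from fold increase in ΔF over vehicle.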
A general note: Time-resolved FRET reads energy transfer from a long-lived donor to a nearby acceptor.

Where [2] appears, read: HEK293H cells stably transfected with SMN2-A minigene, 24 hours, 7-point concentration curve, 1.5-fold relative to vehicle-treated cells.

Like-named read-outs stand apart in the source and are kept apart here. Bounds are passed on as bounds.

The text below walks through data of patent USRE47689E1, “Compounds for treating spinal muscular atrophy” (PTC Therapeutics, Inc., priority 2011, dated 2019).

What is called melting point is the temperature, or range, at which the solid turns liquid.

Consider `Cc1cc([N+](=O)[O-])c2nc(-c3cc4ccc(N5C[C@@H](C)N[C@@H](C)C5)cc4oc3=O)cn2c1` [Compound 701, 7-[(3R,5S)-3,5-dimethylpiperazin-1-yl]-3-(6-methyl-8-nitroimidazo[1,2-a]pyridin-2-yl)-2H-chromen-2-one], for which the melting point lay within 290 to 300 °C. For the same molecule, the EC (1.5-fold) in data set [1] (setting [2]) fell in the range of 1 to 3 µM. For the same molecule, the “maximum fold (Fold) increase of Smn protein” value (from here on “maximum fold (Fold) increase”) in the data set on Smn protein is “** (fold increase between >1.2 and ≤1.35)”.
The molecule `Cc1cn2cc(-c3cc4ccc(OC5CCNCC5)cc4oc3=O)nc2c(C)n1` [Compound 897, 3-(6,8-dimethylimidazo[1,2-a]pyrazin-2-yl)-7-(piperidin-4-yloxy)-2H-chromen-2-one] returned a melting point of 172 to 177 °C. In addition, in data set [1] (setting [2]), the EC (1.5-fold) was < 0.1 µM. In addition, in the data set on Smn protein, the EC1.5x (concentration giving 1.5-fold Smn protein increase) is < 300 nM and the “maximum fold (Fold) increase” value was “***** (fold increase >1.65)”.
For the molecule `Cc1cn2cc(-c3cc4ccc(N5CCCNCC5)cc4oc3=O)nc2c(C(F)(F)F)n1` [Cpd 607, 7-(1,4-diazepan-1-yl)-3-[6-methyl-8-(trifluoromethyl)imidazo[1,2-a]pyrazin-2-yl]-2H-chromen-2-one], the melting point is > 300 °C. For the same molecule, the EC (1.5-fold) in data set [1] (setting [2]) was < 0.1 µM. Further, in the data set with Smn protein, the EC1.5x (concentration giving 1.5-fold Smn protein increase) lay in the range of 300 to 1000 nM; the “maximum fold (Fold) increase” value is “*** (fold increase between >1.35 and ≤1.5)”.
`O=c1oc2cc(N3CCNCC3)ccc2cc1-c1ccn[nH]1` [Cpd 29, 7-(piperazin-1-yl)-3-(1H-pyrazol-5-yl)-2H-chromen-2-one] displayed a melting point of 224 to 228 °C. Further, the EC (1.5-fold) in data set [1] (24 h) fell in the range of 3 to 30 µM. The “maximum fold (Fold) increase” value in the data set on Smn protein was “** (fold increase between >1.2 and ≤1.35)”.
`Cc1cn2cc(-c3cc4ccc(N5CCN(CCCF)[C@@H](C)C5)cc4oc3=O)nc2c(C)n1` [Compound 900, 3-(6,8-dimethylimidazo[1,2-a]pyrazin-2-yl)-7-[(3S)-4-(3-fluoropropyl)-3-methylpiperazin-1-yl]-2H-chromen-2-one] showed a melting point of 215 to 217 °C. The EC (1.5-fold) in data set [1] (setting [2]) was < 0.1 µM. For the same molecule, in the data set on Smn protein, the EC1.5x (concentration giving 1.5-fold Smn protein increase) was < 300 nM and the “maximum fold (Fold) increase” value is “***** (fold increase >1.65)”.
The molecule `Cc1cn2cc(-c3cc4ccc(N5CCCNCC5)cc4oc3=O)cc2cn1` [Compound 638, 7-(1,4-diazepan-1-yl)-3-(3-methylpyrrolo[1,2-a]pyrazin-7-yl)-2H-chromen-2-one] had a melting point of 178 to 181 °C. In data set [1] (setting [2]), the EC (1.5-fold) was < 0.1 µM. In addition, in the data set on Smn protein, the EC1.5x (concentration giving 1.5-fold Smn protein increase) was < 300 nM; the “maximum fold (Fold) increase” value is “**** (fold increase between >1.5 and ≤1.65)”.
`COc1ccncc1-c1cc2ccc(N3CCNCC3)cc2oc1=O` [Compound 234, 3-(4-methoxypyridin-3-yl)-7-(piperazin-1-yl)-2H-chromen-2-one] registered a melting point of 179 to 181 °C. Moreover, in data set [1] (setting [2]), the EC (1.5-fold) was in the range of 3 to 30 µM. The “maximum fold (Fold) increase” value with Smn protein is given as “* (maximum fold increase of ≤1.2)”.
In turn, `C[C@@H]1CN(c2ccc3cc(-c4cnc5ccccc5n4)c(=O)oc3c2)C[C@H](C)N1` [Compound 461, 7-[(3R,5S)-3,5-dimethylpiperazin-1-yl]-3-(quinoxalin-2-yl)-2H-chromen-2-one] displayed a melting point of 234 to 236 °C. For the same molecule, the EC (1.5-fold) in data set [1] (setting [2]) lay within 3 to 30 µM. Also, in the data set with Smn protein, the “maximum fold (Fold) increase” value is “* (maximum fold increase of ≤1.2)”.
With `C[C@@H]1CN(c2ccc3cc(-c4cn5ccccc5n4)c(=O)oc3c2)C[C@H](C)N1` [Compound 139, 7-[(3R,5S)-3,5-dimethylpiperazin-1-yl]-3-(imidazo[1,2-a]pyridin-2-yl)-2H-chromen-2-one], the melting point was 261 °C (dec.). Moreover, in data set [1] (setting [2]), the EC (1.5-fold) lay within 1 to 3 µM. Moreover, the “maximum fold (Fold) increase” value in the data set with Smn protein was “*** (fold increase between >1.35 and ≤1.5)”.
`CN1CCCN(c2ccc3cc(-c4cn5cc(Cl)ccc5n4)c(=O)oc3c2)CC1` [Compound 92, 3-(6-chloroimidazo[1,2-a]pyridin-2-yl)-7-(4-methyl-1,4-diazepan-1-yl)-2H-chromen-2-one] gave a melting point of 186 to 189 °C. The EC (1.5-fold) in data set [1] (setting [2]) lay in the range of 1 to 3 µM. Moreover, the “maximum fold (Fold) increase” value in the data set with Smn protein was “*** (fold increase between >1.35 and ≤1.5)”.
With `Cc1ccn2cc(-c3cc4ccc(N[C@H]5CCNC5)cc4oc3=O)nc2c1` [Compound 581, 3-(7-methylimidazo[1,2-a]pyridin-2-yl)-7-[(3S)-pyrrolidin-3-ylamino]-2H-chromen-2-one], the melting point was 243 to 253 °C. Besides, the EC (1.5-fold) in data set [1] (setting [2]) was in the range of 0.3 to 1 µM. In addition, the “maximum fold (Fold) increase” value with Smn protein is “* (maximum fold increase of ≤1.2)”.
Take `C[C@H]1CN(c2ccc3cc(-c4cn5cccc(F)c5n4)c(=O)oc3c2)CCN1C` [Compound 585, 7-[(3S)-3,4-dimethylpiperazin-1-yl]-3-(8-fluoroimidazo[1,2-a]pyridin-2-yl)-2H-chromen-2-one]: the melting point was in the range of 188 to 192 °C. Further, the EC (1.5-fold) in data set [1] (setting [2]) lay in the range of 0.3 to 1 µM. Besides, in the data set on Smn protein, the “maximum fold (Fold) increase” value is “*** (fold increase between >1.35 and ≤1.5)”.
With `CN1CCN(c2ccc3cc(-c4ccn(C)n4)c(=O)oc3c2)CC1` [Compound 73, 7-(4-methylpiperazin-1-yl)-3-(1-methyl-1H-pyrazol-3-yl)-2H-chromen-2-one], the melting point is 183 to 186 °C. In addition, in data set [1] (24 h), the EC (1.5-fold) lay in the range of 3 to 30 µM. The “maximum fold (Fold) increase” value in the data set on Smn protein is “** (fold increase between >1.2 and ≤1.35)”.
Molecule `Cc1cn2cc(-c3cc4ccc(N5C[C@@H]6C[C@H]5CN6C)cc4oc3=O)nc2c(C)n1` [Compound 696, 3-(6,8-dimethylimidazo[1,2-a]pyrazin-2-yl)-7-[(1S,4S)-5-methyl-2,5-diazabicyclo[2.2.1]hept-2-yl]-2H-chromen-2-one] came in with a melting point of 219 to 226 °C. In addition, the EC (1.5-fold) in data set [1] (setting [2]) is < 0.1 µM. Moreover, in the data set with Smn protein, the EC1.5x (concentration giving 1.5-fold Smn protein increase) is < 300 nM and the “maximum fold (Fold) increase” value was “***** (fold increase >1.65)”.
Take `CN1CCCN(c2cc(F)c3cc(-c4nc5c(F)cccc5o4)c(=O)oc3c2)CC1` [Compound 369, 5-fluoro-3-(4-fluoro-1,3-benzoxazol-2-yl)-7-(4-methyl-1,4-diazepan-1-yl)-2H-chromen-2-one]: the melting point fell in the range of 224 to 228 °C. The EC (1.5-fold) in data set [1] (setting [2]) lay in the range of 0.1 to 0.3 µM. The “maximum fold (Fold) increase” value in the data set on Smn protein is “** (fold increase between >1.2 and ≤1.35)”.
The molecule `Cc1cn2cc(-c3cc4ccc(OCCN5CCOCC5)cc4oc3=O)nc2c(C)n1` [Compound 956, 3-(6,8-dimethylimidazo[1,2-a]pyrazin-2-yl)-7-[2-(morpholin-4-yl)ethoxy]-2H-chromen-2-one] registered a melting point of 175 to 177 °C. In addition, in data set [1] (setting [2]), the EC (1.5-fold) lay within 0.1 to 0.3 µM. Moreover, in the data set on Smn protein, the EC1.5x (concentration giving 1.5-fold Smn protein increase) lay in the range of 1000 to 3000 nM and the “maximum fold (Fold) increase” value is recorded as “***** (fold increase >1.65)”.
Regarding `CN1CCCN(c2ccc3cc(-c4cn5cc(F)ccc5n4)c(=O)oc3c2)CC1` [Compound 294, 3-(6-fluoroimidazo[1,2-a]pyridin-2-yl)-7-(4-methyl-1,4-diazepan-1-yl)-2H-chromen-2-one], the melting point fell in the range of 152 to 155 °C. Besides, the EC (1.5-fold) in data set [1] (setting [2]) lay in the range of 0.1 to 0.3 µM. In the data set on Smn protein, the EC1.5x (concentration giving 1.5-fold Smn protein increase) lay in the range of 1000 to 3000 nM; the “maximum fold (Fold) increase” value is “** (fold increase between >1.2 and ≤1.35)”.
For the molecule `C[C@@H]1CN(c2ccc3cc(-c4cc5ccccn5c4)c(=O)oc3c2)C[C@H](C)N1` [Compound 553, 7-[(3R,5S)-3,5-dimethylpiperazin-1-yl]-3-(indolizin-2-yl)-2H-chromen-2-one], the melting point lay in the range of 164 to 167 °C. In addition, the EC (1.5-fold) in data set [1] (setting [2]) is 0.3 to 1 µM. Further, the “maximum fold (Fold) increase” value in the data set with Smn protein is recorded as “* (maximum fold increase of ≤1.2)”.
With `Cc1cn2cc(-c3cc4ccc(O[C@@H]5CCNC5)cc4oc3=O)nc2cn1` [Compound 594, 3-(6-methylimidazo[1,2-a]pyrazin-2-yl)-7-[(3R)-pyrrolidin-3-yloxy]-2H-chromen-2-one], the melting point was in the range of 254 to 258 °C. Moreover, the EC (1.5-fold) in data set [1] (setting [2]) is < 0.1 µM. Moreover, in the data set with Smn protein, the EC1.5x (concentration giving 1.5-fold Smn protein increase) is < 300 nM and the “maximum fold (Fold) increase” value was “***** (fold increase >1.65)”.
Consider `COc1ccc(-c2cc3ccc(N4CCN[C@@H](C)C4)cc3oc2=O)cc1OC` [Compound 383, 3-(3,4-dimethoxyphenyl)-7-[(3S)-3-methylpiperazin-1-yl]-2H-chromen-2-one], for which the melting point was in the range of 140 to 143 °C. The EC (1.5-fold) in data set [1] (setting [2]) was in the range of 0.1 to 0.3 µM. Besides, in the data set on Smn protein, the EC1.5x (concentration giving 1.5-fold Smn protein increase) is 1000 to 3000 nM; the “maximum fold (Fold) increase” value was “**** (fold increase between >1.5 and ≤1.65)”.
`CN(CCO)Cc1ccc2cc(-c3nc4ccccc4s3)c(=O)oc2c1` [Compound 79, 3-(1,3-benzothiazol-2-yl)-7-{[(2-hydroxyethyl)(methyl)amino]methyl}-2H-chromen-2-one] came in with a melting point of 182 to 184 °C. The EC (1.5-fold) in data set [1] (setting [2]) is 1 to 3 µM. In the data set on Smn protein, the “maximum fold (Fold) increase” value was “*** (fold increase between >1.35 and ≤1.5)”.
